{"source": "patent US11453697B1", "about": "“Cyclic di-nucleotide compounds as sting agonists” (Merck Sharp & Dohme Corp., priority 2015, dated 2022)", "test_system": "IFN-β secretion in THP1 cells", "assay": "IFN-β secretion in THP1 cell culture (5 h)", "type": "cell-based, human", "method": "The ability of compounds to stimulate the secretion of interferon-beta from THP1 cells was measured using a human IFN-β AlphaLISA kit (Perkin Elmer, Cat. No. AL265F). The basic protocol is as follows:\nThe cell viability and count was ascertained using a Beckman Coulter V-Cell XR cell counter. The cells suspension was centrifuged at 200×g for 5 min at RT. […] Subsequent liquid transfers were performed using either a Matrix electronic multichannel pipette or an Agilent Bravo Automated Liquid Handling Platform.\nThe assay was started by dispensing 40 μL of the previously prepared cell suspension into the wells of the plate containing compounds. After 5 h incubation at 37° C., 5% CO2 in a humidified atmosphere, the plate of cells and compounds was centrifuged at 200×g for 5 min at RT. […] To these supernatant-containing wells was added 10 μL of 5× Anti-Analyte Acceptor beads (50 μg/mL of AlphaLISA HiBlock Buffer) and incubated for 30 min at RT while shaking on an orbital plate shaker. To each well was added 10 μL of 5× Biotinylated Antibody Anti-analyte (5 nM in AlphaLISA HiBlock Buffer) and incubated on an orbital plate shaker for 60 min at RT or overnight at 4° C. To each well was added 25 μL of 2× SA-Donor beads (80 μg/mL in AlphaLISA HiBlock Buffer) and incubated for 30-45 min at RT in the dark while shaking on an orbital plate shaker. The plate was then read on a Perkin Elmer Envision (λex=680 nm, λem=[…]). The percent effect of the AlphaLISA signal at each compound concentration was calculated based on 30 uM cGAMP positive controls and 0.3% DMSO negative controls. The plot of percent effect versus the log of compound concentration was fit with a 4-parameter concentration response equation to calculate EC50 values.\nCompounds of the disclosure were evaluated for IFN-β secretion in THP1 cell culture as described above.", "key": {"[1]": {"conditions": "IFN-β secretion in THP1 cell culture, 5 h, compound at 30 μM, percent activation relative to 2′3′-cGAMP"}}, "note": "Like-named read-outs stand apart in the source and are kept apart here."}
{"smiles": "Nc1nc2c(ncn2[C@@H]2O[C@@H]3COP(O)(=S)O[C@H]4[C@H](F)[C@H](n5cnc6c(N)ncnc65)O[C@@H]4COP(O)(=S)O[C@@H]2[C@@H]3F)c(=O)[nH]1", "note": "(single isomer, unassigned) [Example 246]", "values": [{"measurement": "% Effect at 30 μM relative to 2′3′-cGAMP", "setting": "[1]", "result": 217, "unit": "%"}]}
{"smiles": "Nc1nc2c(nnn2[C@@H]2O[C@@H]3COP(=O)(S)O[C@H]4[C@H](F)[C@H](n5cnc6c(=O)[nH]cnc65)O[C@@H]4COP(=O)(S)O[C@@H]2[C@@H]3F)c(=O)[nH]1", "note": "(single isomer, unassigned) [Example 342]", "values": [{"measurement": "% Effect at 30 μM relative to 2′3′-cGAMP", "setting": "[1]", "result": 23, "unit": "%"}]}
{"smiles": "Nc1nc2c(ncn2[C@@H]2O[C@@H]3COP(=O)(S)O[C@H]4[C@@H](O)[C@H](n5ccc6c(N)ncnc65)O[C@@H]4COP(=O)(S)O[C@@H]2C3)c(=O)[nH]1", "note": "(stereo partly drawn) [Example 78, 2-amino-9-[(5S,7R,8R,12aR,14R,15R,15aS)-14-(4-amino-7H-pyrrolo[2,3-d]pyrimidin-7-yl)-15-hydroxy-2,10-dioxido-2,10-disulfanyloctahydro-12H-5,8-methanofuro[3,2-l][1,3,6,9,11,2,10]pentaoxadiphosphacyclotetradecin-7-yl]-1,9-dihydro-6H-purin-6-one]", "values": [{"measurement": "% Effect at 30 μM relative to 2′3′-cGAMP", "setting": "[1]", "result": 162, "unit": "%"}]}
{"smiles": "Nc1nc2c(ncn2[C@@H]2O[C@@H]3COP(O)(=S)O[C@H]4[C@H](F)[C@H](n5cnc6c(N)ncnc65)O[C@@H]4COP(O)(=S)O[C@@H]2[C@@H]3F)c(=O)[nH]1", "note": "(single isomer, unassigned) [Example 245]", "values": [{"measurement": "% Effect at 30 μM relative to 2′3′-cGAMP", "setting": "[1]", "result": 234, "unit": "%"}]}
{"smiles": "Nc1nc2c(ncn2[C@@H]2O[C@@H]3COP(=O)(S)OC4[C@@H](COP(=O)(S)OC2C3O)O[C@@H](n2cnc3c(N)ncnc32)[C@H]4F)c(=O)[nH]1", "note": "(single isomer, unassigned) [Example 91]", "values": [{"measurement": "% Effect at 30 μM relative to 2′3′-cGAMP", "setting": "[1]", "result": 106, "unit": "%"}]}
{"smiles": "Nc1nc2c(ncn2[C@@H]2O[C@@H]3COP(=O)(S)O[C@H]4[C@@H](O)[C@H](n5ccc6c(N)ncnc65)O[C@@H]4COP(=O)(S)O[C@@H]2C3)c(=O)[nH]1", "note": "(stereo partly drawn) [Example 79, 2-amino-9-[(5S,7R,8R,12aR,14R,15R,15aS)-14-(4-amino-7H-pyrrolo[2,3-d]pyrimidin-7-yl)-15-hydroxy-2,10-dioxido-2,10-disulfanyloctahydro-12H-5,8-methanofuro[3,2-l][1,3,6,9,11,2,10]pentaoxadiphosphacyclotetradecin-7-yl]-1,9-dihydro-6H-purin-6-one]", "values": [{"measurement": "% Effect at 30 μM relative to 2′3′-cGAMP", "setting": "[1]", "result": 145, "unit": "%"}]}
{"smiles": "Nc1nc2c(ncn2[C@@H]2O[C@@H]3COP(=O)(O)O[C@H]4[C@H](F)[C@H](n5cnc6c(N)ncnc65)O[C@@H]4COP(O)(=S)O[C@@H]2[C@@H]3F)c(=O)[nH]1", "note": "(single isomer, unassigned) [Example 274]", "values": [{"measurement": "% Effect at 30 μM relative to 2′3′-cGAMP", "setting": "[1]", "result": 124, "unit": "%"}]}
{"smiles": "Nc1nc2c(ncn2[C@@H]2O[C@@H]3COP(=O)(O)OC4C(F)[C@H](n5cnc6c(N)ncnc65)O[C@@H]4COP(=O)(O)OC2C3O)c(=O)[nH]1", "note": "(stereo in doubt) [Example 2, (5R,7R,8R,12aR,14R,15R,15aR,16R)-7-(2-amino-6-oxo-1,6-dihydro-9H-purin-9-yl)-14-(6-amino-9H-purin-9-yl)-15-fluoro-16-hydroxyoctahydro-12H-5,8-methanofuro[3,2-l] [1,3,6,9,11,2,10]pentaoxadiphosphacyclotetradecine-2,10-diolate 2,10-dioxide]", "values": [{"measurement": "% Effect at 30 μM relative to 2′3′-cGAMP", "result": 148, "unit": "%"}]}
{"smiles": "Nc1nc2c(ncn2[C@@H]2O[C@@H]3COP(=O)(O)OC4C[C@H](n5cnc6c(N)ncnc65)O[C@@H]4COP(=O)(O)OC2C3F)c(=O)[nH]1", "note": "(stereo in doubt) [Example 22, 2-amino-9-[(5R,7R,8S,12aR,14R,15aS,16R)-14-(6-amino-9H-purin-9-yl)-16-fluoro-2,10-dihydroxy-2,10-dioxidooctahydro-12H-5,8-methanofuro[3,2-l][1,3,6,9,11,2,10]pentaoxadiphosphacyclotetradecin-7-yl]-1,9-dihydro-6H-purin-6-one]", "values": [{"measurement": "% Effect at 30 μM relative to 2′3′-cGAMP", "result": 109, "unit": "%"}]}
{"smiles": "Nc1nc2c(ncn2[C@@H]2O[C@@H]3COP(=O)(S)O[C@H]4[C@H](F)[C@H](n5cnc6c(N)ncnc65)O[C@@H]4COP(=O)(O)O[C@@H]2[C@@H]3F)c(=O)[nH]1", "note": "(stereo partly drawn) [Example 143, 2-amino-9-[(5R,7R,8S,12aR,14R,15S,15aR,16R)-14-(6-amino-9H-purin-9-yl)-15,16-difluoro-2,10-dihydroxy-10-oxido-2-sulfidooctahydro-12H-5,8-methanofuro[3,2-l][1,3,6,9,11,2,10]pentaoxadiphosphacyclotetra-decin-7-yl]-1,9-dihydro-6H-purin-6-one]", "values": [{"measurement": "% Effect at 30 μM relative to 2′3′-cGAMP", "setting": "[1]", "result": 157, "unit": "%"}]}
{"smiles": "Nc1nc2c(ncn2[C@@H]2O[C@@H]3COP(=O)(S)OC4[C@@H](COP(=O)(S)OC2C3O)O[C@@H](n2cnc3c(N)ncnc32)[C@H]4F)c(=O)[nH]1", "note": "(single isomer, unassigned) [Example 90]", "values": [{"measurement": "% Effect at 30 μM relative to 2′3′-cGAMP", "setting": "[1]", "result": 117, "unit": "%"}]}
{"smiles": "Nc1nc2c(ncn2[C@@H]2O[C@@H]3COP(=O)(S)OC4C(O)[C@H](n5cnc6c(N)ncnc65)O[C@@H]4COP(=O)(S)OC2C3)c(=O)[nH]1", "note": "(single isomer, unassigned) [Example 88]", "values": [{"measurement": "% Effect at 30 μM relative to 2′3′-cGAMP", "setting": "[1]", "result": 54, "unit": "%"}]}
{"smiles": "Nc1nc2c(ncn2[C@@H]2O[C@@H]3COP(=O)(S)O[C@H]4[C@H](F)[C@H](n5cnc6c(N)ncnc65)O[C@@H]4COP(=O)(S)O[C@@H]2[C@H]3F)c(=O)[nH]1", "note": "(single isomer, unassigned) [Example 146]", "values": [{"measurement": "% Effect at 30 μM relative to 2′3′-cGAMP", "setting": "[1]", "result": 59, "unit": "%"}]}
{"smiles": "Nc1nc2c(ncn2[C@@H]2O[C@@H]3COP(O)(=S)O[C@H]4[C@@H](F)[C@H](n5cnc6c(N)ncnc65)O[C@@H]4COP(O)(=S)O[C@@H]2[C@@H]3F)c(=O)[nH]1", "note": "(stereo partly drawn) [Example 260, 2-amino-9-[(5R,7R,8S,12aR,14R,15R,15aR,16R)-14-(6-amino-9H-purin-9-yl)-15,16-difluoro-2,10-dihydroxy-2,10-disulfidooctahydro-12H-5,8-methanofuro[3,2-l][1,3,6,9,11,2,10]pentaoxadiphosphacyclotetradecin-7-yl]-1,9-dihydro-6H-purin-6-one]", "values": [{"measurement": "% Effect at 30 μM relative to 2′3′-cGAMP", "setting": "[1]", "result": 113, "unit": "%"}]}
{"smiles": "Nc1nc2c(nnn2[C@@H]2O[C@@H]3COP(=O)(S)O[C@H]4[C@H](F)[C@H](n5nnc6c(=O)[nH]cnc65)O[C@@H]4COP(=O)(S)O[C@@H]2[C@@H]3F)c(=O)[nH]1", "note": "(single isomer, unassigned) [Example 344]", "values": [{"measurement": "% Effect at 30 μM relative to 2′3′-cGAMP", "setting": "[1]", "result": 337, "unit": "%"}]}
{"smiles": "Nc1nc2c(nnn2[C@@H]2O[C@@H]3COP(=O)(S)O[C@H]4[C@H](F)[C@H](n5cnc6c(=O)[nH]cnc65)O[C@@H]4COP(=O)(S)O[C@@H]2[C@@H]3F)c(=O)[nH]1", "note": "(single isomer, unassigned) [Example 343]", "values": [{"measurement": "% Effect at 30 μM relative to 2′3′-cGAMP", "setting": "[1]", "result": 255, "unit": "%"}]}
{"smiles": "Nc1nc2c(ncn2[C@@H]2O[C@@H]3COP(=O)(S)OC4C(O)[C@H](n5cnc6c(N)ncnc65)O[C@@H]4COP(=O)(S)OC2C3)c(=O)[nH]1", "note": "(single isomer, unassigned) [Example 87]", "values": [{"measurement": "% Effect at 30 μM relative to 2′3′-cGAMP", "setting": "[1]", "result": 99, "unit": "%"}]}
{"smiles": "Nc1nc2c(ncn2[C@@H]2O[C@@H]3COP(=O)(O)OC4[C@@H](COP(=O)(O)OC2C3O)O[C@@H](n2cnc3c(N)ncnc32)[C@H]4F)c(=O)[nH]1", "note": "(stereo in doubt) [Example 7, (5R,7R,8R,12aR,14R,15S,15aR,16R)-7-(2-amino-6-oxo-1,6-dihydro-9H-purin-9-yl)-14-(6-amino-9H-purin-9-yl)-15-fluoro-16-hydroxyoctahydro-12H-5,8-methanofuro[3,2-l][1,3,6,9,11,2,10] pentaoxadiphosphacyclotetradecine-2,10-diolate 2,10-dioxide]", "values": [{"measurement": "% Effect at 30 μM relative to 2′3′-cGAMP", "result": 112, "unit": "%"}]}
{"smiles": "Nc1nc2c(ncn2[C@@H]2O[C@@H]3COP(=O)(O)OC4C(O)[C@H](n5cnc6c(N)ncnc65)O[C@@H]4COP(=O)(O)OC2C3F)c(=O)[nH]1", "note": "(stereo in doubt) [Example 5, (5R,7R,8S,12aR,14R,15R,15aS,16R)-7-(2-amino-6-oxo-1,6-dihydro-9H-purin-9-yl)-14-(6-amino-9H-purin-9-yl)-16-fluoro-15-hydroxyoctahydro-12H-5,8-methanofuro[3,2-l] [1,3,6,9,11,2,10]pentaoxadiphosphacyclotetradecine-2,10-diolate 2,10-dioxide]", "values": [{"measurement": "% Effect at 30 μM relative to 2′3′-cGAMP", "result": 152, "unit": "%"}]}
{"smiles": "Nc1nc2c(ncn2[C@@H]2O[C@@H]3COP(=O)(O)O[C@H]4C[C@H](n5cnc6c(N)ncnc65)O[C@@H]4COP(=O)(O)O[C@@H]2C3)c(=O)[nH]1", "note": "[Example 27, 2-amino-9-[(5S,7R,8R,12aR,14R,15aS)-14-(6-amino-9H-purin-9-yl)-2,10-dihydroxy-2,10-dioxidooctahydro-12H-5,8-methanofuro[3,2-l][1,3,6,9,11,2,10]pentaoxadiphosphacyclotetradecin-7-yl]-1,9-dihydro-6H-purin-6-one]", "values": [{"measurement": "% Effect at 30 μM relative to 2′3′-cGAMP", "result": 164, "unit": "%"}]}
{"smiles": "Nc1nc2c(nnn2[C@@H]2O[C@@H]3COP(=O)(S)O[C@H]4[C@H](F)[C@H](n5nnc6c(=O)[nH]cnc65)O[C@@H]4COP(=O)(S)O[C@@H]2C3)c(=O)[nH]1", "note": "(single isomer, unassigned) [Example 341]", "values": [{"measurement": "% Effect at 30 μM relative to 2′3′-cGAMP", "setting": "[1]", "result": 7, "unit": "%"}]}
